Among the data in patent publication US9260459B2, “4,6-hexadecadiene-2,4-dicarboxylic acid derivative” (Kyowa Hakko Kirin Co., Ltd., priority 2012, dated 2016) are inhibition values, retold here.

For the first test, the system named is human cervical cancer cell line HeLa. Briefly: Cell growth inhibition test against human cervical cancer cells. The settings on record: compound concentration 20 μmol/L, 72 hours culture, read-out: inhibited the cell growth. Format: cell-based. The procedure: As a cervical cancer cell line, a human cervical cancer cell line HeLa (DS Pharma Biomedical, Cat. No. EC93021013-F0) was used.
The cell line was cultured under conditions of 37° C. and 5% carbon dioxide.
The difference in absorbance in the well in which the cells were not treated with the compound was taken as 100%, and the difference in absorbance in the well in which the cells were not inoculated was taken as 0%, and the cell growth ratio (%) was calculated based on the difference in absorbance in the compound-treated group.
For `CCC(C)CC(C)CC(C)CC(C)/C=C(C)/C=C(/CC(C)C(=O)OC1C(=O)OC(C(=O)O)C1C(=O)O)C(=O)O` (stereo not shown) [Compound 1, 4-{(4Z,6E)-4-Carboxy-2,6,8,10,12,14-hexamethylhexadec-4,6-dienoyloxy}-5-oxotetrahydrofuran-2,3-dicarboxylic Acid], the inhibition at 20 µM is not below 90%.
For the compound `CCC(C)CC(C)CC(C)CC(C)/C=C(C)/C=C(/CC(C)C(=O)OC1C(=O)OC(C(=O)OCOC(C)=O)C1C(=O)OCOC(C)=O)C(=O)OCOC(C)=O` (stereo not shown) [Compound 27, Di(acetoxymethyl) 4-{(4Z,6E)-4-(acetoxymethoxycarbonyl)-2,6,8,10,12,14-hexamethylhexadec-4,6-dienoyloxy}-5-oxotetrahydrofuran-2,3-dicarboxylate], the inhibition at 20 µM was not below 90%.

Staying with this test, now noted: compound concentration 200 μmol/L, 72 hours culture, read-out: inhibited the cell growth.
Consider `CCC(C)CC(C)CC(C)CC(C)/C=C(C)/C=C(/CC(C)C(=O)OC1C(=O)OC(C(=O)OC)C1C(=O)OC)C(=O)OC` (stereo not shown) [Compound 5, Dimethyl 4-{(4Z,6E)-4-(methoxycarbonyl)-2,6,8,10,12,14-hexamethylhexadec-4,6-dienoyloxy}-5-oxotetrahydrofuran-2,3-dicarboxylate], for which the inhibition at 200 µM is not below 90%.
As for `CCC(C)CC(C)CC(C)CC(C)/C=C(C)/C=C(/CC(C)C(=O)OC(C(=O)O)C(C(=O)OC)C(O)C(=O)OC)C(=O)OC` (stereo not shown) [Compound 6, 4-Hydroxy-5-methoxy-3-(methoxycarbonyl)-2-{(4Z,6E)-4-(methoxycarbonyl)-2,6,8,10,12,14-hexamethylhexadec-4,6-dienoyloxy}-5-oxopentanoic Acid], the inhibition at 200 µM was not below 90%.
`CCC(C)CC(C)CC(C)CC(C)/C=C(C)/C=C(/CC(C)C(=O)OC(C(=O)OC)C(C(=O)OC)C(O)C(=O)OC)C(=O)OC` (stereo not shown) [Compound 7, Trimethyl 1-hydroxy-3-{(4Z,6E)-4(methoxycarbonyl)-2,6,8,10,12,14-hexamethylhexadec-4,6-dienoyloxy}-propane-1,2,3-tricarboxylate]: the inhibition at 200 µM was not below 90%.
Still for that read-out and setting: as for `CCC(C)CC(C)CC(C)CC(C)/C=C(C)/C=C(/CC(C)C(=O)O)C(=O)OC(C)(C)C` (stereo not shown) [Compound 8, (4Z,6E)-4-(tert-Butoxycarbonyl)-2,6,8,10,12,14-hexamethylhexadec-4,6-dienoic Acid], the figure is not below 90%; as for `CCC(C)CC(C)CC(C)CC(C)/C=C(C)/C=C(/CC(C)C(=O)OCC(=O)O)C(=O)O` (stereo not shown) [Compound 9, (2Z,4E)-2-{3-(Carboxymethoxy)-2-methyl-3-oxopropyl}-4,6,8,10,12-pentamethyltetradec-2,4-dienoic Acid], not below 90%.
For the compound `CCC(C)CC(C)CC(C)CC(C)/C=C(C)/C=C(/CC(C)C(=O)OC)C(=O)O` (stereo not shown) [Compound 10, (2Z,4E)-2-(3-Methoxy-2-methyl-3-oxopropyl)-4,6,8,10,12-pentamethyltetradec-2,4-dienoic Acid], the inhibition at 200 µM is not below 90%.
On the same count and under the same terms, next, `CCC(C)CC(C)CC(C)CC(C)/C=C(C)/C=C(/CC(C)C(=O)OCCC(=O)O)C(=O)O` (stereo not shown) [Compound 11, (2Z,4E)-2-{3-(2-Carboxyethoxy)-2-methyl-3-oxopropyl}-4,6,8,10,12-pentamethyltetradec-2,4-dienoic Acid]: not below 90%; `CCC(C)CC(C)CC(C)CC(C)/C=C(C)/C=C(/CC(C)C(=O)CCCC(=O)O)C(=O)O` (stereo not shown) [Compound 12, (2Z,4E)-2-{3-(3-Carboxypropyl)-2-methyl-3-oxopropyl}-4,6,8,10,12-pentamethyltetradec-2,4-dienoic Acid]: not below 90%.
In the case of `CCC(C)CC(C)CC(C)CC(C)/C=C(C)/C=C(/CC(C)C(=O)CCCO)C(=O)O` (stereo not shown) [Compound 13, (2Z,4E)-2-{3-(3-Hydroxypropyl)-2-methyl-3-oxopropyl}-4,6,8,10,12-pentamethyltetradec-2,4-dienoic Acid], the inhibition at 200 µM is not below 90%.
With `CCC(C)CC(C)CC(C)CC(C)/C=C(C)/C=C(/CC(C)C(=O)O[C@@H](CC(=O)O)C(=O)O)C(=O)O` (stereo partly drawn) [Compound 14, (2S)-2-{(4Z,6E)-4-Carboxy-2,6,8,10,12,14-hexamethylhexadec-4,6-dienoyloxy}succinic Acid], the inhibition at 200 µM is not below 90%.
Consider `CCC(C)CC(C)CC(C)CC(C)/C=C(C)/C=C(/CC(C)C(=O)O[C@H]1CCOC1=O)C(=O)O` (stereo partly drawn) [Compound 15, (2Z,4E)-4,6,8,10,12-Pentamethyl-2-[2-methyl-3-oxo-3-{(S)-2-oxotetrahydrofuran-3-yloxy}propyl]tetradec-2,4-dienoic Acid], for which the inhibition at 200 µM is not below 90%.
On the same count and under the same terms, as for `CCC(C)CC(C)CC(C)CC(C)/C=C(C)/C=C(/CC(C)C(=O)OCC[C@H](O)C(=O)O)C(=O)O` (stereo partly drawn) [Compound 16, (2Z,4E)-2-[3-{(S)-3-Carboxy-3-hydroxypropoxy}-2-methyl-3-oxopropyl]-4,6,8,10,12-pentamethyltetradec-2,4-dienoic Acid], the figure is not below 90%; as for `CCOP(=O)(OCC)O[C@H](C(=O)O)[C@H](OC(=O)C(C)C/C(=C/C(C)=C/C(C)CC(C)CC(C)CC(C)CC)C(=O)O)C(=O)O` (stereo partly drawn) [Compound 17, (2S,3S)-2-{(4Z,6E)-4-Carboxy-2,6,8,10,12,14-hexamethylhexadec-4,6-dienoyloxy}-3-(diethoxyphosphoryloxy)succinic Acid], not below 90%; as for `CCC(C)CC(C)CC(C)CC(C)/C=C(C)/C=C(/CC(C)C(=O)[C@@H](CC)C(=O)O)C(=O)O` (stereo partly drawn) [Compound 18, (2Z,4E)-2-[3-{(R)-1-Carboxypropyl}-2-methyl-3-oxopropyl]-4,6,8,10,12-pentamethyltetradec-2,4-dienoic Acid], not below 90%.
Take `CCC(C)CC(C)CC(C)CC(C)/C=C(C)/C=C(/CC(C)C(=O)C[C@@H](O)CO)C(=O)O` (stereo partly drawn) [Compound 19, (2Z,4E)-2-[3-{(R)-2,3-Dihydroxypropyl}-2-methyl-3-oxopropyl]-4,6,8,10,12-pentamethyltetradec-2,4-dienoic Acid]: the inhibition at 200 µM is not below 90%.
For the compound `CCC(C)CC(C)CC(C)CC(C)/C=C(C)/C=C(/CC(C)C(=O)O[C@@H]1CCOC1=O)C(=O)O` (stereo partly drawn) [Compound 20, (2Z,4E)-4,6,8,10,12-Pentamethyl-2-[2-methyl-3-oxo-3-{(R)-2-oxotetrahydrofuran-3-yloxy}propyl]tetradec-2,4-dienoic Acid], the inhibition at 200 µM is not below 90%.
With `CCC(C)CC(C)CC(C)CC(C)/C=C(C)/C=C(/CC(C)C(=O)[C@@H]1COC(=O)C1)C(=O)O` (stereo partly drawn) [Compound 21, (2Z,4E)-4,6,8,10,12-Pentamethyl-2-[2-methyl-3-oxo-3-{(S)-5-oxotetrahydrofuran-3-yl}propyl]tetradec-2,4-dienoic Acid], the inhibition at 200 µM is not below 90%.
On the same count and under the same terms, next, `CCC(C)CC(C)CC(C)CC(C)/C=C(C)/C=C(/CC(C)C(=O)OC(C(=O)O)C(=O)O)C(=O)O` (stereo not shown) [Compound 22, 2-{(4Z,6E)-4-Carboxy-2,6,8,10,12,14-hexamethylhexadec-4,6-dienoyloxy}malonic Acid]: not below 90%; `CCC(C)CC(C)CC(C)CC(C)/C=C(C)/C=C(/CC(C)C(=O)OC(C(=O)O)C(C(=O)O)C(=O)O)C(=O)O` (stereo not shown) [Compound 23, 2-{(4Z,6E)-4-Carboxy-2,6,8,10,12,14-hexamethylhexadec-4,6-dienoyloxy}ethane-1,1,2-tricarboxylic Acid]: not below 90%; `CCC(C)CC(C)CC(C)CC(C)/C=C(C)/C=C(/CC(C)C(=O)OCC(CC(=O)O)C(=O)O)C(=O)O` (stereo not shown) [Compound 24, 2-[{(4Z,6E)-4-Carboxy-2,6,8,10,12,14-hexamethylhexadec-4,6-dienoyloxy}methyl]succinic Acid]: not below 90%.
Regarding `CCC(C)CC(C)CC(C)CC(C)/C=C(C)/C=C(/CC(C)C(=O)OCOC(C)=O)C(=O)O` (stereo not shown) [Compound 28, (2Z,4E)-2-{3-(Acetoxymethoxy)-2-methyl-3-oxopropyl}-4,6,8,10,12-pentamethyltetradec-2,4-dienoic Acid], the inhibition at 200 µM was not below 90%.
As for `CCC(C)CC(C)CC(C)CC(C)/C=C(C)/C=C(/CC(C)C(=O)OCOC(C)=O)C(=O)OCOC(C)=O` (stereo not shown) [Compound 29, Bis(acetoxymethyl) (Z)-2-methyl-4-{(E)-2,4,6,8,10-pentamethyldodec-2-enylidene}pentanedioate], the inhibition at 200 µM was not below 90%.
On the same count and under the same terms, as for `CCC(C)CC(C)CC(C)CC(C)/C=C(C)/C=C(/CC(C)C(=O)OC(C(=O)O)C(C(=O)OCOC(C)=O)C(O)C(=O)OCOC(C)=O)C(=O)O` (stereo not shown) [Compound 30, (2Z,4E)-2-[3-{4-(Acetoxymethoxy)-2-{(acetoxymethoxy)carbonyl}-1-carboxy-3-hydroxy-4-oxobutoxy}-2-methyl-3-oxopropyl]-4,6,8,10,12-pentamethyltetradec-2,4-dienoic Acid], the figure is not below 90%.
